A word on the GI50: it is the concentration that inhibits growth by half. As a reminder, the IC50 is the concentration needed to halve the response being measured.

In experiment [1] the test system is MCF-7 cells. Put plainly: MTT cytotoxicity assay, MCF-7. The experiment is classed as cell-based, human. Particulars: read-out: GI50 ± SD (μM) MCF-7. (In general: Tetrazolium assays rely on reduction of a dye to a coloured formazan, in cell work by metabolically active cells.)
Experiment [2] relates to HCT-116 cells. Put plainly: MTT cytotoxicity assay, HCT-116. The experiment is classed as cell-based, human. Conditions: read-out: GI50 ± SD (μM) HCT-116.
Experiment [3] has as its target recombinant human TDP1 (Homo sapiens, UniProt Q9NUW8). Put plainly: TDP1 gel-based inhibition assay. Format: biochemical.
Experiment [4] addresses T1, recombinant TOP1 (Homo sapiens, UniProt P11387).
T1 sequence (P11387 1-765): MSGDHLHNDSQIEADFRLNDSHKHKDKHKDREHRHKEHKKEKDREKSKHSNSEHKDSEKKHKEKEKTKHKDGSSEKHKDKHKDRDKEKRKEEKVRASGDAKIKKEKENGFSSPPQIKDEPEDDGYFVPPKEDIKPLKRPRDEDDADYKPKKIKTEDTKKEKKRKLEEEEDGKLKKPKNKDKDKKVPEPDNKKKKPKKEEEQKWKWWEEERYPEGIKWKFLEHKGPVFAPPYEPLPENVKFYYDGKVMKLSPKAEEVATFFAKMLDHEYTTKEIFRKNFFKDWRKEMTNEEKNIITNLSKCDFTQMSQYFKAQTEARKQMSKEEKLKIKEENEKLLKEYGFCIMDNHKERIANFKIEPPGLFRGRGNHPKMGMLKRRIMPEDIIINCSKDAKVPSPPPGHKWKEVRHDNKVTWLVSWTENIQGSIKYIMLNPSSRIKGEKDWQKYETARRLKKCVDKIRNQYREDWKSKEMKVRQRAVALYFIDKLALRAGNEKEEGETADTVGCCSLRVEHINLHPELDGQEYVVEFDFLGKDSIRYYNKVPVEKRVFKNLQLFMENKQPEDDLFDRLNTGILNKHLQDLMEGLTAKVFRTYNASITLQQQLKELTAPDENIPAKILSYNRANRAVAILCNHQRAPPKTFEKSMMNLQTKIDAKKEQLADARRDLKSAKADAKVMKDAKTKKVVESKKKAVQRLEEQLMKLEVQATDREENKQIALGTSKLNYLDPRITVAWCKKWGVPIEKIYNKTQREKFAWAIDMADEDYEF
As to the kind of experiment: TOP1-mediated DNA cleavage assay. The experiment is classed as biochemical. Particulars: TOP1 cleavage inhibitory activity, semiquantitative relative to CPT at 1 μM.

Like-named read-outs stand apart in the source and are kept apart here.

Sequence of recombinant human TDP1 (Q9NUW8 whole entry): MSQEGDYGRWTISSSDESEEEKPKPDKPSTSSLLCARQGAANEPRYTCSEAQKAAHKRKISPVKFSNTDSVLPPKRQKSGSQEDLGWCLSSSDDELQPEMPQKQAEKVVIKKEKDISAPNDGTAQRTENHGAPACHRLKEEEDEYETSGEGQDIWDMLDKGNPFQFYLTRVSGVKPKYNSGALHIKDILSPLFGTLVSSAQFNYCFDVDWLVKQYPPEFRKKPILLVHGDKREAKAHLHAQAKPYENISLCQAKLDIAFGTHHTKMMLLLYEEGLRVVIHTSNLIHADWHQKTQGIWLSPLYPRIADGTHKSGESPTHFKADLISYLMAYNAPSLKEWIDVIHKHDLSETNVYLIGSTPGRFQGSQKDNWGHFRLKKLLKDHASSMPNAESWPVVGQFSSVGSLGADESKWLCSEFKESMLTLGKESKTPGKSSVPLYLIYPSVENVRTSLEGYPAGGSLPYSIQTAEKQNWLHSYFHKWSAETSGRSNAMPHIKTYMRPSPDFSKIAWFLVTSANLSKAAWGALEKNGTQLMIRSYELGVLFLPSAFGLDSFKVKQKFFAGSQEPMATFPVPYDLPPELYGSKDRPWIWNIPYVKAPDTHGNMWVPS

For `COc1cc2c(=O)n(C)c3c4cc5c(cc4ccc3c2cc1OC)OCO5` [Compound 4, oxynitidine, reference compound], the GI50 was over 100 µM in experiment [1] (MTT assay, 72 h, Table 1) and 75 ± 4.4 µM in experiment [2] (MTT assay, 72 h, Table 1). Further, the IC50 in experiment [3] (read-out: IC50 (μM) for TDP1, gel-based assay, Table 1) was over 111 µM.

Turning to `COc1cc2c(=O)n(C)c3c4cc5c(cc4c(OC(C)=O)cc3c2cc1OC)OCO5` [Compound 10, 2,3-Dimethoxy-12-methyl-13-oxo-12,13-dihydro-[1,3]dioxolo[4’,5’:4,5]benzo[1,2-c]phenanthridin-6-yl acetate], the GI50 in experiment [1] (Homo sapiens, MCF7, 72 h) was over 100 µM; in experiment [2] (Homo sapiens, HCT-116, 72 h), over 100 µM. The “TOP1 Inhibition” value in experiment [4] (Table 1) was “+ (+, between 20% and 50% activity)”. Also, in experiment [3], the IC50 was over 111 µM.

As for `COc1cc2c(=O)n(C)c3c4cc5c(cc4c(O)cc3c2cc1OC)OCO5` [Compound 11, 6-Hydroxy-2,3-dimethoxy-12-methyl-[1,3]dioxolo[4’,5’:4,5]benzo[1,2-c]phenanthridin-13(12H)-one], the GI50 in experiment [1] (Homo sapiens, MCF7, 72 h) is over 100 µM; in experiment [2] (Homo sapiens, HCT-116, 72 h), over 100 µM. Further, the “TOP1 Inhibition” value in experiment [4] (Table 1) is 0. Besides, the half-inhibitory concentration (IC50) in experiment [3] is over 111 µM.

`CNCCOc1cc2c3cc(OC)c(OC)cc3c(=O)n(C)c2c2cc3c(cc12)OCO3` [Compound 12, 2,3-Dimethoxy-12-methyl-6-(2-(methylamino)ethoxy)-[1,3]dioxolo[4’,5’:4,5]benzo[1,2-c]phenanthridin-13(12H)-one]: the GI50 is 2.2 ± 0.06 µM in experiment [1] (Homo sapiens, MCF7, 72 h) and 1.3 ± 0.12 µM in experiment [2] (Homo sapiens, HCT-116, 72 h). For the same molecule, the “TOP1 Inhibition” value in experiment [4] (Table 1) was “+++ (+++, between 75% and 95% activity)”. Further, in experiment [3], the IC50 is over 111 µM.

As for `CNCCCOc1cc2c3cc(OC)c(OC)cc3c(=O)n(C)c2c2cc3c(cc12)OCO3` [Compound 13, 2,3-Dimethoxy-12-methyl-6-(3-(methylamino)propoxy)-[1,3]dioxolo[4’,5’:4,5]benzo[1,2-c]phenanthridin-13(12H)-one], the GI50 in experiment [1] (Homo sapiens, MCF7, 72 h) is 33 ± 5 µM; in experiment [2] (Homo sapiens, HCT-116, 72 h), 12 ± 1.2 µM. For the same molecule, the “TOP1 Inhibition” value in experiment [4] (Table 1) was “+ (+, between 20% and 50% activity)”. The IC50 in experiment [3] is over 111 µM.

Turning to `COc1cc2c(=O)n(C)c3c4cc5c(cc4c(OCCN(C)C)cc3c2cc1OC)OCO5` [Compound 14, 6-(2-(Dimethylamino)ethoxy)-2,3-dimethoxy-12-methyl-[1,3]dioxolo[4’,5’:4,5]benzo[1,2-c]phenanthridin-13(12H)-one], the GI50 in experiment [1] (Homo sapiens, MCF7, 72 h) was found to be 8.5 ± 0.91 µM; in experiment [2] (Homo sapiens, HCT-116, 72 h), 4.6 ± 0.41 µM. In addition, the “TOP1 Inhibition” value in experiment [4] (Table 1) is “+ (+, between 20% and 50% activity)”. Moreover, in experiment [3], the IC50 lay in the range of 37 to 111 µM.

In the case of `COc1cc2c(=O)n(C)c3c4cc5c(cc4c(OCCCN(C)C)cc3c2cc1OC)OCO5` [Compound 15, 6-(3-(Dimethylamino)propoxy)-2,3-dimethoxy-12-methyl-[1,3]dioxolo[4’,5’:4,5]benzo[1,2-c]phenanthridin-13(12H)-one], the GI50 in experiment [1] (Homo sapiens, MCF7, 72 h) is 54 ± 4.9 µM; in experiment [2] (Homo sapiens, HCT-116, 72 h), 36 ± 1.3 µM. In experiment [4] (Table 1), the “TOP1 Inhibition” value is “+ (+, between 20% and 50% activity)”. In addition, in experiment [3], the IC50 was over 111 µM.

Regarding `COc1cc2c(=O)n(C)c3c4cc5c(cc4c(OCCN4CCCCC4)cc3c2cc1OC)OCO5` [Compound 16, 2,3-Dimethoxy-12-methyl-6-(2-(piperidin-1-yl)ethoxy)-[1,3]dioxolo[4’,5’:4,5]benzo[1,2-c]phenanthridin-13(12H)-one], the GI50 in experiment [1] (Homo sapiens, MCF7, 72 h) was 22 ± 7.7 µM; in experiment [2] (Homo sapiens, HCT-116, 72 h) it was over 100 µM. In addition, the “TOP1 Inhibition” value in experiment [4] (Table 1) was “+ (+, between 20% and 50% activity)”. Moreover, the IC50 in experiment [3] was over 111 µM.

Take `COc1cc2c(=O)n(C)c3c4cc5c(cc4c(OCCCN4CCCCC4)cc3c2cc1OC)OCO5` [Compound 17, 2,3-Dimethoxy-12-methyl-6-(3-(piperidin-1-yl)propoxy)-[1,3]dioxolo[4’,5’:4,5]benzo[1,2-c]phenanthridin-13(12H)-one]: the concentration for 50% growth inhibition (GI50) in experiment [1] (Homo sapiens, MCF7, 72 h) turned out to be 6.6 ± 1.3 µM; in experiment [2] (Homo sapiens, HCT-116, 72 h), 1.8 ± 0.32 µM. In addition, in experiment [4] (Table 1), the “TOP1 Inhibition” value is “++ (++, between 50% and 75% activity)”. Besides, the IC50 in experiment [3] was over 111 µM.

`COc1cc2c(=O)n(C)c3c4cc5c(cc4c(OCCN4CCN(C)CC4)cc3c2cc1OC)OCO5` [Compound 18, 2,3-Dimethoxy-12-methyl-6-(2-(4-methylpiperazin-1-yl)ethoxy)-[1,3]dioxolo[4’,5’:4,5]benzo[1,2-c]phenanthridin-13(12H)-one]: the GI50 in experiment [1] (Homo sapiens, MCF7, 72 h) stood at 7 ± 1.3 µM; in experiment [2] (Homo sapiens, HCT-116, 72 h), 7.7 ± 0.56 µM. The “TOP1 Inhibition” value in experiment [4] (Table 1) was “+ (+, between 20% and 50% activity)”. Besides, the concentration for half-maximal inhibition (IC50) in experiment [3] is 37 to 111 µM.

`COc1cc2c(=O)n(C)c3c4cc5c(cc4c(OCCCN4CCN(C)CC4)cc3c2cc1OC)OCO5` [Compound 19, 2,3-Dimethoxy-12-methyl-6-(3-(4-methylpiperazin-1-yl)propoxy)-[1,3]dioxolo[4’,5’:4,5]benzo[1,2-c]phenanthridin-13(12H)-one]: the GI50 in experiment [1] (Homo sapiens, MCF7, 72 h) was 0.93 ± 0.07 µM; in experiment [2] (Homo sapiens, HCT-116, 72 h), 1.5 ± 0.21 µM. Moreover, the “TOP1 Inhibition” value in experiment [4] (Table 1) is “++ (++, between 50% and 75% activity)”. Moreover, the IC50 in experiment [3] is over 111 µM.

For the molecule `COc1cc2c(=O)n(C)c3c4cc5c(cc4c(OCCn4ccnc4)cc3c2cc1OC)OCO5` [Compound 20, 6-(2-(1H-Imidazol-1-yl)ethoxy)-2,3-dimethoxy-12-methyl-[1,3]dioxolo[4’,5’:4,5]benzo[1,2-c]phenanthridin-13(12H)-one], the GI50 was determined as 2.7 ± 0.23 µM in experiment [1] (Homo sapiens, MCF7, 72 h) and 2.9 ± 0.45 µM in experiment [2] (Homo sapiens, HCT-116, 72 h). Besides, the “TOP1 Inhibition” value in experiment [4] (Table 1) was “++ (++, between 50% and 75% activity)”. Besides, the half-maximal inhibitory concentration (IC50) in experiment [3] is over 111 µM.

`COc1cc2c(=O)n(C)c3c4cc5c(cc4c(OCCCn4ccnc4)cc3c2cc1OC)OCO5` [Compound 21, 6-(3-(1H-Imidazol-1-yl)propoxy)-2,3-dimethoxy-12-methyl-[1,3]dioxolo[4’,5’:4,5]benzo[1,2-c]phenanthridin-13(12H)-one]: the GI50 in experiment [1] (Homo sapiens, MCF7, 72 h) came out at 64 ± 3.9 µM; in experiment [2] (Homo sapiens, HCT-116, 72 h), 16 ± 3.6 µM. In addition, the “TOP1 Inhibition” value in experiment [4] (Table 1) came to 0. In addition, the IC50 in experiment [3] was over 111 µM.

With `COc1cc2c(=O)n(C)c3c4cc5c(cc4c(OCCNCCN(C)C)cc3c2cc1OC)OCO5` [Compound 22, 6-(2-((2-(Dimethylamino)ethyl)amino)ethoxy)-2,3-dimethoxy-12-methyl-[1,3]dioxolo[4’,5’:4,5]benzo[1,2-c]phenanthridin-13(12H)-one], the GI50 in experiment [1] (Homo sapiens, MCF7, 72 h) was 9.1 ± 2.4 µM; in experiment [2] (Homo sapiens, HCT-116, 72 h), 9.1 ± 1 µM. In addition, the “TOP1 Inhibition” value in experiment [4] (Table 1) is “+ (+, between 20% and 50% activity)”. Also, the IC50 in experiment [3] is over 111 µM.

As to `CCOC(=O)COc1cc2c3cc(OC)c(OC)cc3c(=O)n(C)c2c2cc3c(cc12)OCO3` [Compound 23, Ethyl 2-((2,3-dimethoxy-12-methyl-13-oxo-12,13-dihydro-[1,3]dioxolo[4’,5’:4,5]benzo[1,2-c]phenanthridin-6-yl)oxy)acetate], the GI50 was 91 ± 5.9 µM in experiment [1] (Homo sapiens, MCF7, 72 h) and over 100 µM in experiment [2] (Homo sapiens, HCT-116, 72 h). Moreover, the “TOP1 Inhibition” value in experiment [4] (Table 1) is 0. Also, the IC50 in experiment [3] is over 111 µM.

Turning to `COc1cc2c(=O)n(C)c3c4cc5c(cc4cc(O)c3c2cc1OC)OCO5` [Compound 33, 5-Hydroxy-2,3-dimethoxy-12-methyl-[1,3]dioxolo[4’,5’:4,5]benzo[1,2-c]phenanthridin-13(12H)-one], the GI50 in experiment [1] (Homo sapiens, MCF7, 72 h) was over 100 µM; in experiment [2] (Homo sapiens, HCT-116, 72 h), over 100 µM. Moreover, in experiment [4] (Table 2), the “TOP1 Inhibition” value was “+ (+, between 20% and 50% activity)”. The IC50 in experiment [3] is over 111 µM.

These data come from paper PMC10233710 (ChemMedChem, 2023).
